Values quoted from earlier work as cited in patent publication US20220361717A1, “Anti-Pathogenic Hand Sanitization Station” (priority 2021, published 2022).
“Also recorded” adds a separate entry of the source.

Legend:
[1] = test system: Bacteria: Gram-positive; Gram-negative; conditions: copolymerization of antimicrobial monomer and styrene; effect on the potency of the monomer
[2] = test system: Bacteria: S. Aureus; P. aeruginosa; E. coli
[3] = test system: Bacteria: Pseudomonas aeruginosa; Staphylococccus
Bacteria: E-coli = conditions: value = inhibited species
[4] = test system: Bacteria: E. coli; S. aureus; S. typhimurium
[5] = test system: Bacteria: Gram-postive bacteria; conditions: homopolymer versus model compound p-ethylbenzyl tetramethylene sulforium tetrafluoroborate
[6] = test system: Bacteria: S. aureus; E. coli; conditions: value = inhibited species

Structure (SMILES): C=CC(=O)Nc1cccc(C)c1
- Comparison of Polymers with Monomer [1]: styrene decreases

Structure (SMILES): C=C(C)C(=O)OCC(O)CSc1nnc(C)s1 (stereo not shown)
- Comparison of Polymers with Monomer ([2]; homopolymer effectiveness versus the monomer): more
- Inhibited Microbial Species ([2]; value = inhibited species): Bacteria: S. Aureus;; also recorded: P. aeruginosa;; also recorded: E. coli;

Structure (SMILES): C=CC(=O)Oc1cc(Cl)ccc1Oc1ccc(Cl)cc1Cl
- Comparison of Polymers with Monomer ([3]; homopolymer and copolymers with methyl methacrylate, styrene versus the monomer): less effective
- Inhibited Microbial Species ([3]; value = inhibited species, 'Pseudomonas aeruginosa' wrapped over cells): Staphylococccus

Structure (SMILES): C=CC(=O)N1C(C)(C)NC(=O)C1(C)C
- Inhibited Microbial Species (Bacteria: E-coli): Bacteria: E-coli

Structure (SMILES): C=CC(=O)Oc1ccc(Cl)c2cccnc12
- Comparison of Polymers with Monomer ([4]; homopolymer and copolymers with acrylamide versus the monomer): less effective than
- Inhibited Microbial Species ([4]; value = inhibited species): S. aureus;; also recorded: S. typhimurium

Structure (SMILES): C=Cc1ccc(C[S+]2CCCC2)cc1
- Comparison of Polymers with Monomer [5]: is more effective

Structure (SMILES): C=C(C)C(=O)OCCOC(=O)C(C)CC1(CCCCCCCC)CCC(CCCCCCCC)(CC(C)C(=O)OCCOC(=O)C(=C)C)CC1 (stereo not shown)
- Inhibited Microbial Species [6]: Bacteria: S. aureus;; also recorded: E. coli
